*1 amine or outer side, *2 acyl side, *3 side chain or, on linkers, in order; H or OH if unused. Where a SMILES comes first, the peptide text is derived from it. Bridges are numbered along the chain shown (N, C = ends). [ ]: non-standard residue; d: D form. The star is where a group is joined. X1 = COc1cc2cc(c1Cl)N(C)C(=O)C[C@H](OC(=O)[C@H](C)N(C)C(=O)CCSSC(C)CCC(=O)*)[C@]1(C)O[C@H]1[C@H](C)[C@@H]1C[C@@](O)(NC(=O)O1)[C@H](OC)/C=C/C=C(\C)C2; 1Nal = N[C@@H](Cc1cccc2ccccc12)C(=O)O; TBMB = c1c(C[*:1])cc(C[*:3])cc1C[*:2]; Tle = CC(C)(C)[C@H](N)C(=O)O; βAla = NCCC(=O)O; Sar = CNCC(=O)O
Legend:
[1] = system: MT1-positive tumor xenograft models (e.g. HT1080 fibrosarcoma; HCC1806 triple negative breast cancer; SNU-16 gastric cancer); test: Selection of MT1-positive tumor xenograft models; assay type: in vivo
From the text: Efficacy in this model was reduced in the conjugates containing the least cleavable linkers.

[2] = system: RPMI2650 xenograft; test: In vivo efficacy of BT1718 in RPMI2650 xenograft; set-up: species or system Mus Musculus; key to Best response at 10 mg/kg: CR complete response; PR partial response
Procedure: The objective of this study was to evaluate the in vivo anti-tumor efficacy of BT1718in treatment of HT1080, NCI-H292, NCI-H1975, MDA-MB-231, HCC1806, RPMI2650, HCT-15, HT-29 and SNU-16 xenograft in BALB/c nude mice.
The HT1080, NCI-H292, NCI-H1975, MDA-MB-231, HCC1806, RPMI2650, HCT-15, HT-29 and SNU-16 tumor cells were maintained in vitro as a monolayer culture in medium supplemented with 10% heat inactivated fetal bovine serum at 37° C. in an […]. The tumor cells will be routinely subcultured twice weekly by trypsin-EDTA treatment. The cells growing in an exponential growth phase will be harvested and counted for tumor inoculation.
Mouse was inoculated subcutaneously at the right flank with tumor cells for tumor development. The animals were randomized and treatment was started when the average tumor reaches certain volume for the efficacy study, the inoculating cell amounts and starting tumor size were shown as below in Table 9. The test article administration and the animal numbers in each group were shown in the experimental design in Table 10.
All the procedures related to animal handling, care and the treatment in the study were performed according to the guidelines of the Association for Assessment and Accreditation of Laboratory Animal Care (AAALAC). At the time of routine monitoring, the animals were daily checked for any effects of tumor growth and treatments on normal behavior such as mobility, food and water consumption (by looking only), body weight gain/loss (body weights were measured every day), eye/hair matting and any other abnormal effect as stated in the protocol. Death and observed clinical signs were recorded on the basis of the numbers of animals within each subset.
The major endpoint was to see if the tumor growth could be delayed or mice could be cured. Tumor size was measured three times weekly in two dimensions using a caliper, and the volume was expressed in mm^3 using the formula: V=0.5 a×b^2 where a and b are the long and short diameters of the tumor, respectively. The tumor size was then used for calculations of T/C value. The T/C value (in percent) is an indication of antitumor effectiveness; T and C are the mean volumes of the treated and control groups, respectively, on a given day.
TGI was calculated for each group using the formula: TGI (%)=[1−(Ti−T0)/(Vi−V0)]×100; Ti is the average tumor volume of a treatment group on a given day, T0 is the average tumor volume of the treatment group on the day of treatment start, Vi is the average tumor volume of the vehicle control group on the same day with Ti, and V0 is the average tumor volume of the vehicle group on the day of treatment start.
Summary statistics, including mean and the standard error of the mean (SEM), are provided for the tumor volume of each group at each time point.
Statistical analysis of difference in tumor volume among the groups was conducted on the data obtained at the best therapeutic time point after the final dose.
A one-way ANOVA was performed to compare tumor volume among groups, and when a significant F-statistics (a ratio of treatment variance to the error variance) was obtained, comparisons between groups were carried out with Games-Howell test. All data were analyzed using Prism. P<0.05 was considered to be statistically significant.

COc1cc2cc(c1Cl)N(C)C(=O)C[C@H](OC(=O)[C@H](C)N(C)C(=O)CCSSC(C)CCC(=O)NCCC(=O)N(C)CC(=O)N(C)CC(=O)N(C)CC(=O)N(C)CC(=O)N(C)CC(=O)N(C)CC(=O)N(C)CC(=O)N(C)CC(=O)N(C)CC(=O)N(C)CC(=O)N[C@@H](C)C(=O)N[C@H]1CSCc3cc4cc(c3)CSC[C@H](NC(=O)[C@@H](C)NC(=O)[C@H](Cc3cccc5ccccc35)NC(=O)[C@H](CCC(=O)O)NC(=O)[C@H](CC(N)=O)NC(=O)[C@@H](C)NC1=O)C(=O)N[C@@H](CCC(=O)O)C(=O)N[C@@H](CC(=O)O)C(=O)N[C@@H](Cc1ccccc1)C(=O)N[C@@H](Cc1ccc(O)cc1)C(=O)N[C@@H](CC(=O)O)C(=O)N[C@@H](C(C)(C)C)C(=O)N[C@H](C(N)=O)CSC4)[C@]1(C)O[C@H]1[C@H](C)[C@@H]1C[C@@](O)(NC(=O)O1)[C@H](OC)/C=C/C=C(\C)C2 (some centres unmarked) [BT1718] ({X1-βAla}-[Sar][Sar][Sar][Sar][Sar][Sar][Sar][Sar][Sar][Sar]AC[dA]NE[1Nal][dA]CEDFYD[Tle]C-NH2; linker 12-18-25 via TBMB (inferred))
tumor response ([1]; 10 mg/kg twice weekly): complete regressions in most models
minimally effective doses ([1]; weekly or twice weekly): 3 to 10 mg/kg
tumor response ([2]; 10 mg/kg biw): significant tumor inhibition effect, but didn't cause tumor regression
Body Weight ([2]; 1 mpk biw, day 0): 21.8 ± 0.5 g
Tumor Volume ([2]; 1 mpk biw, day 0): 146 ± 5 mm^3
Body Weight ([2]; 1 mpk biw, day 2): 22.1 ± 0.6 g
Tumor Volume ([2]; 1 mpk biw, day 2): 159 ± 9 mm^3
Body Weight ([2]; 1 mpk biw, day 4): 22.1 ± 0.7 g
Tumor Volume ([2]; 1 mpk biw, day 4): 213 ± 23 mm^3
Body Weight ([2]; 1 mpk biw, day 7): 22.6 ± 0.5 g
Tumor Volume ([2]; 1 mpk biw, day 7): 362 ± 34 mm^3
Body Weight ([2]; 1 mpk biw, day 9): 22.8 ± 0.5 g
Tumor Volume ([2]; 1 mpk biw, day 9): 470 ± 68 mm^3
Body Weight ([2]; 1 mpk biw, day 11): 22.6 ± 0.6 g
Tumor Volume ([2]; 1 mpk biw, day 11): 614 ± 96 mm^3
Body Weight ([2]; 1 mpk biw, day 14): 23.1 ± 0.8 g
Tumor Volume ([2]; 1 mpk biw, day 14): 833 ± 126 mm^3
Body Weight ([2]; 3 mpk biw, day 0): 22.1 ± 0.7 g
Tumor Volume ([2]; 3 mpk biw, day 0): 147 ± 11 mm^3
Body Weight ([2]; 3 mpk biw, day 2): 21.9 ± 0.8 g
Tumor Volume ([2]; 3 mpk biw, day 2): 164 ± 20 mm^3
Body Weight ([2]; 3 mpk biw, day 4): 21.4 ± 0.6 g
Tumor Volume ([2]; 3 mpk biw, day 4): 220 ± 23 mm^3
Body Weight ([2]; 3 mpk biw, day 7): 21.9 ± 0.8 g
Tumor Volume ([2]; 3 mpk biw, day 7): 365 ± 10 mm^3
Body Weight ([2]; 3 mpk biw, day 9): 21.4 ± 0.7 g
Tumor Volume ([2]; 3 mpk biw, day 9): 447 ± 18 mm^3
Body Weight ([2]; 3 mpk biw, day 11): 20.7 ± 0.8 g
Tumor Volume ([2]; 3 mpk biw, day 11): 576 ± 19 mm^3
Body Weight ([2]; 3 mpk biw, day 14): 21.0 ± 0.7 g
Tumor Volume ([2]; 3 mpk biw, day 14): 724 ± 28 mm^3
Body Weight ([2]; 10 mpk biw, day 0): 22.0 ± 0.3 g
Tumor Volume ([2]; 10 mpk biw, day 0): 147 ± 7 mm^3
Body Weight ([2]; 10 mpk biw, day 2): 21.2 ± 0.1 g
Tumor Volume ([2]; 10 mpk biw, day 2): 151 ± 10 mm^3
Body Weight ([2]; 10 mpk biw, day 4): 20.6 ± 0.5 g
Tumor Volume ([2]; 10 mpk biw, day 4): 190 ± 25 mm^3
Body Weight ([2]; 10 mpk biw, day 7): 21.1 ± 0.4 g
Tumor Volume ([2]; 10 mpk biw, day 7): 198 ± 38 mm^3
Body Weight ([2]; 10 mpk biw, day 9): 19.9 ± 0.3 g
Tumor Volume ([2]; 10 mpk biw, day 9): 165 ± 42 mm^3
Body Weight ([2]; 10 mpk biw, day 11): 19.2 ± 0.3 g
Tumor Volume ([2]; 10 mpk biw, day 11): 155 ± 54 mm^3
Body Weight ([2]; 10 mpk biw, day 14): 19.6 ± 0.7 g
Tumor Volume ([2]; 10 mpk biw, day 14): 131 ± 49 mm^3
Best response at 10 mg/kg ([2]; RPMI2650, 10 mg/kg): PR
TGI ([2]; RPMI2650, 1 mpk, biw, day 14): 4.5%
Tumor Volume ([2]; RPMI2650, 1 mpk, biw, day 14): 833 ± 126 mm^3
TGI ([2]; RPMI2650, 3 mpk, biw, day 14): 19.8%
Tumor Volume ([2]; RPMI2650, 3 mpk, biw, day 14): 724 ± 28 mm^3
TGI ([2]; RPMI2650, 10 mpk, biw, day 14): 102.1%
Tumor Volume ([2]; RPMI2650, 10 mpk, biw, day 14): 131 ± 49 mm^3
Minimally Effective Dose IV BIW ([2]; RPMI2650, dose leading to tumor-stasis): 10 mg/kg
